Reference: patent publication US20040073007A1, “Antiangiogenic peptides” (priority 2001, published 2004)
Ends that are not written are not given here. * marks the point of attachment. Acm = CC(=O)NC*

How the values were obtained:
[1] = test system: male mice C57/b16; assay: Matrigel pellet s.c. in mice, hemoglobin amount (Drabkin's method); assay type: in vivo; conditions: Matrigel with FGF 2 ng/ml and heparin 36 U/ml s.c., 4 days; dose of 1 mg/mouse; compared with controls
Procedure: […] of Matrigel containing FGF 2 ng/ml and heparin 36 U/ml were inoculated s.c. in the abdominal region of male mice C57/b16, of age from 6 to 10 weeks. […] Six animals were used in each experiment. After 4 days, the gelatinized Matrigel pellet was recovered and the amount of hemoglobin therein was measured by means of a commercial kit based on Drabkin's method ([…] Aldrich).

[2] = test system: EA.hy.926 cells; assay: EA.hy.926 cell migration, chemotaxis test in Boyden chamber; assay type: cell-based, human; conditions: glioma conditioned medium as chemotactic stimulus, 4 hours, at/starting from 10^−9 M
Procedure: Endothelial human cells EA.hy.926 were grown in DMEM supplemented with 10% fetal bovine serum (FBS) and with the appropriate concentrations of glutamine and antibiotics. Before the experiments, the cells had been deprived of serum for 24 hours in 0.1% FBS. EA.hy.926 cells migration has been evaluated by chemotaxis test in a 48 well Boyden chamber using polycarbonate filters of 12 μm porosity pre-treated with a 10 μg/ml type I collagen solution. […] The chemotactic stimulus, represented by a conditioned medium obtained by a culture of glioma cells, was added to the lower chamber. After 4 hours of incubation at 37° C., non migrated cells were removed by a scraper and the filter was colored with Diff Quick. Migrated cells were then counted at a 400×magnification in 6 different fields. The results, reported in FIG. 2, are expressed as a percentage of the maximal migration induced by the conditioned medium in the presence of the peptide or of endostatin.

[3] = test system: endothelial cells; assay: Tubules formation by endothelial cells on Matrigel; assay type: cell-based; conditions: endothelial cells on Matrigel with FGF or VEGF; area quantified by NIH Image
Procedure: The formation of tubular structures, similar to capillaries, was evaluated by seeding the endothelial cells on a Matrigel carrier, a re-constructed basal membrane, with the characteristic of being liquid at 4° C. and of undergoing polymerization at 37° C. forming a tri-dimensional gel. Proangiogenic factors, such as Fibroblast Growth Factor (FGF) or Vascular Endothelial Growth Factor (VEGF), were added to the medium in the presence of the peptide 9-49 and the plate's were incubated at 37° C. under 5% CO2 atmosphere. Tubules formation was monitored observing the cells with an inverted microscope and, after recording the image by means of photography, a quantification was performed by evaluating the area occupied by the cells and by the capillaries network. Upon observation under the microscope, it is evident that the peptide of invention is able to inhibit the capacity of endothelial cells to form tubular structures similar to capillaries, which on the contrary are clearly evident in the untreated control cells (FIG. 4A). In FIG. 4B, a quantitative analysis of the effect, carried out by a proper software (NIH Image), is reported.

[4] = test system: EA.hy.926 cells; assay: DNA synthesis (tritiated thymidine incorporation) in EA.hy.926 cells stimulated with 10% FBS; assay type: cell-based, human; conditions: 24 hours, starting from the concentration of 10^−12 M
Procedure: Endothelial human cells EA.hy.926 were grown in DMEM supplemented with 10% fetal bovine serum (FBS) and with the appropriate concentrations of glutamine and antibiotics. Before the experiments, the cells had been deprived of serum for 24 hours in 0.1% FBS. EA.hy.926 cells were inoculated in 96 well-plates and, after being deprived of serum for 24 hours, were 'stimulated with 10% FBS in the presence or in the absence of different concentrations of the peptide 6-49 or of endostatin for further 24 hours. Tritiated tymidine (1 μCi/well) was added during the last 6 hours of incubation. The cells were then extracted in 10% TCA and the radioactivity incorporated in the TCA-insoluble fraction was determined after solubilization in 0.5 M NaOH. The results, reported in FIGS. 3a and 3b, are expressed as the percentage of the maximal stimulation induced by 10% serum in the absence of the drug.

FQPVLHLVALNSPLSGGMRGIRGADFQC(Acm)FQQARAVGLAGTFRAF [Peptide 6-49, tetratetracontapeptide]
hemoglobin levels in the Matrigel pellets [1]: capable of reducing hemoglobin levels | maximal inhibition of cell migration [2]: about 60% | tubules formation compared with controls, considered as 100% [3]: 23% | maximal inhibition of DNA synthesis [4]: about 80%
